Laboratory results reported in patent US20250099557A1, “ANTIBIOTIC PHARMACEUTICAL COMPOSITION CAPABLE OF SUBCUTANEOUS ADMINISTRATION” (SHANGHAI BAO PHARMACEUTICALS CO., LTD., priority 2021, published 2025).
Where two headings read alike, the source gives them in different places.

How the values were obtained:
HAase [1] = biological target: T1, HAase (Homo sapiens, UniProt P38567); test: Compatibility study of HAase and antibiotic in solution: HAase activity; format: biochemical; details: 15 min room temperature; for Final concentration of HAase (units/ml) 150: HAase added to 150 units/ml; for Final concentration of HAase (units/ml) 500: HAase added to 500 units/ml; for Final concentration of HAase (units/ml) 2000: HAase added to 2000 units/ml; for Final concentration of HAase (units/ml) 6000: HAase added to 6000 units/ml; for interference with the activity of HAase: antibiotic and HAase in physiological saline
T1 construct: made in house
T1 sequence (P38567 36-482): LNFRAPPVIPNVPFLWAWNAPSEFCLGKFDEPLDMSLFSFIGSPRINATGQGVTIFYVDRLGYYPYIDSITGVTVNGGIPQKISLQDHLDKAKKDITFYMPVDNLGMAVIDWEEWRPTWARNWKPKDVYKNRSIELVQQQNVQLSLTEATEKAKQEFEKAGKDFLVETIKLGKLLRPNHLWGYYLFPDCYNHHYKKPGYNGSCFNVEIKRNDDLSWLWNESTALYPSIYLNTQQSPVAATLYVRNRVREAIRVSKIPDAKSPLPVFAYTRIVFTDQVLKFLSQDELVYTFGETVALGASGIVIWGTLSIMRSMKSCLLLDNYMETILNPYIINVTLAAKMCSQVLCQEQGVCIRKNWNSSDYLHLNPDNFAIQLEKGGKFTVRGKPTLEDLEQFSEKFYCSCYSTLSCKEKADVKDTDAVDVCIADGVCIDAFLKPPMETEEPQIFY
Experimental: “HAase activity refers to the ability of HAase to catalytically cleave hyaluronic acid. The Chinese Pharmacopoeia provides a method for determining the HAase activity, indirectly by measuring the amount of remaining higher-molecular-weight hyaluronic acid substrate after the enzyme is allowed to catalytically cleave hyaluronic acid at 37° C. for 30 min. A standard reference solution can be used in the assay to determine the relative activity (in units) of any HAase. In-vitro assays for the determination of HAase are known in the art. Exemplary assays include micro-turbidimetric assay described below, which indirectly measures the cleavage of hyaluronic acid by HAase by detecting an insoluble precipitate formed when uncleaved hyaluronic acid binds to serum albumin. The reference standard can be used, for example, to generate a standard curve, so as to determine the activity of the tested HAase in units.
(§1) The compatibility of HAase and an antibiotic was studied by preparing a solution comprising the two substances. A dry Meropenem power for injection was dissolved in physiological saline to give a concentration of 5 mg/ml and 50 mg/ml, and then HAase was added to give a final concentration of 150, 500, 2000, and 6000 units/ml respectively. After preparation, the solution was left to stand at room temperature for 15 min. The appearance of the solution was observed, and the concentration of HAase was determined.
as §1, with “dry Ceftriaxone sodium” for “dry Meropenem”, “of 50” for “of 5”, “and 250” for “and 50”
as §1, with “dry Azithromycin” for “dry Meropenem”, “of 10” for “of 5”, “and 100” for “and 50”
as §1, with “dry Cefradine powder” for “dry Meropenem power”, “of 50” for “of 5”, “and 250” for “and 50”
as §1, with “dry Teicoplanin powder” for “dry Meropenem power”, “of 10” for “of 5”, “and 70” for “and 50”
as §1, with “dry Ceftazidime powder” for “dry Meropenem power”, “of 20” for “of 5”, “and 200” for “and 50”, “min.” for “min. The appearance of the solution was observed, and the concentration of HAase was determined.”

in vivo = details: male, ICR, mouse
Excerpt: (§2) The difference in pharmacokinetics between subcutaneous administration of antibiotics combined with recombinant human HAase and traditional intravenous administration of antibiotics in mice was studied. Ceftriaxone, Ceftazidime, Ertapenem, and Teicoplanin were used as model antibiotics. A total of 48 ICR male mice were used in each antibiotic model, and divided into two groups, each having 24 mice. The two groups include a tail vein injection group, and a subcutaneous administration group of antibiotics combined with recombinant human HAase. The single dose was 100-200 mg/kg, and the drugs was respectively formulated and administered according to the scheme for each group. Blood samples were taken 5 min, 15 min, 30 min, 45 min, 1 hr, 2 hrs, 4 hrs and 8 hrs after administration. The concentration of each model antibiotic in the sample was detected by LC-MS and the pharmacokinetic parameters were calculated.

[2] = male, ICR, mouse, in vivo, sc
Excerpt: as §2

HAase [3] = biological target: T1, HAase; test: Compatibility study of HAase and antibiotic in solution: HAase activity; format: biochemical; details: 15 min room temperature
[4] = Pharmacokinetics of model antibiotics in mice: tail vein injection vs subcutaneous administration combined with recombinant human HAase; details: for AUC(0-t): AUClast
Excerpt: as §2

[5] = antibiotic 50 mg/ml in physiological saline
[6] = antibiotic 250 mg/ml in physiological saline
[7] = antibiotic 20 mg/ml in physiological saline
[8] = antibiotic 200 mg/ml in physiological saline
[9] = antibiotic 30 mg/ml in physiological saline
[10] = antibiotic 300 mg/ml in physiological saline
[11] = ICR male mice, in combination with recombinant human HAase for subcutaneous administration, single dose 100-200 mg/kg
[12] = antibiotic 10 mg/ml in physiological saline
[13] = antibiotic 70 mg/ml in physiological saline
[14] = ICR male mice, administration by injection via tail vein, single dose 100-200 mg/kg
[15] = ICR male mice, conventional subcutaneous administration, single dose 100-200 mg/kg

CC1=C(C(=O)O)N2C(=O)[C@@H](NC(=O)[C@H](N)C3=CCC=CC3)[C@H]2SC1 [Cefradine]
Final concentration of HAase (units/ml) 150 (HAase [1]; [5]): 162 units/ml | Final concentration of HAase (units/ml) 500 (HAase [1]; [5]): 492 units/ml | Final concentration of HAase (units/ml) 2000 (HAase [1]; [5]): 2009 units/ml | Final concentration of HAase (units/ml) 6000 (HAase [1]; [5]): 6126 units/ml | Final concentration of HAase (units/ml) 150 (HAase [1]; [6]): 161 units/ml | Final concentration of HAase (units/ml) 500 (HAase [1]; [6]): 482 units/ml | Final concentration of HAase (units/ml) 2000 (HAase [1]; [6]): 2080 units/ml | Final concentration of HAase (units/ml) 6000 (HAase [1]; [6]): 5797 units/ml | interference with the activity of HAase (HAase [1]): does not interfere with the activity of HAase

CC(C)(O/N=C(\C(=O)N[C@@H]1C(=O)N2C(C(=O)[O-])=C(C[n+]3ccccc3)CS[C@H]12)c1csc(N)n1)C(=O)O [Ceftazidime]
Final concentration of HAase (units/ml) 150 (HAase [1]; [7]): 145 units/ml | Final concentration of HAase (units/ml) 500 (HAase [1]; [7]): 501 units/ml | Final concentration of HAase (units/ml) 2000 (HAase [1]; [7]): 2026 units/ml | Final concentration of HAase (units/ml) 6000 (HAase [1]; [7]): 6027 units/ml | Final concentration of HAase (units/ml) 150 (HAase [1]; [8]): 148 units/ml | Final concentration of HAase (units/ml) 500 (HAase [1]; [8]): 488 units/ml | Final concentration of HAase (units/ml) 2000 (HAase [1]; [8]): 2001 units/ml | Final concentration of HAase (units/ml) 6000 (HAase [1]; [8]): 5981 units/ml | interference with the activity of HAase (HAase [1]): does not interfere with the activity of HAase | Tmax (in vivo; iv): 5 min | Tmax (in vivo; sc): 15 min

CO/N=C(\C(=O)N[C@@H]1C(=O)N2C(C(=O)O)=C(CSc3nc(=O)c(=O)[nH]n3C)CS[C@H]12)c1csc(N)n1 [Ceftriaxone]
Final concentration of HAase (units/ml) 150 (HAase [1]; [5]): 162 units/ml | Final concentration of HAase (units/ml) 500 (HAase [1]; [5]): 510 units/ml | Final concentration of HAase (units/ml) 2000 (HAase [1]; [5]): 1986 units/ml | Final concentration of HAase (units/ml) 6000 (HAase [1]; [5]): 6067 units/ml | Final concentration of HAase (units/ml) 150 (HAase [1]; [6]): 162 units/ml | Final concentration of HAase (units/ml) 500 (HAase [1]; [6]): 507 units/ml | Final concentration of HAase (units/ml) 2000 (HAase [1]; [6]): 1962 units/ml | Final concentration of HAase (units/ml) 6000 (HAase [1]; [6]): 6232 units/ml | interference with the activity of HAase (HAase [1]): does not interfere with the activity of HAase | Tmax [2]: 15 min | Tmax (in vivo; iv): 5 min

C[C@@H](O)[C@H]1C(=O)N2C(C(=O)O)=C(S[C@@H]3CN[C@H](C(=O)Nc4cccc(C(=O)O)c4)C3)[C@H](C)[C@H]12 [Ertapenem]
Final concentration of HAase (units/ml) 150 (HAase [1]; [9]): 152 units/ml | Final concentration of HAase (units/ml) 500 (HAase [1]; [9]): 501 units/ml | Final concentration of HAase (units/ml) 6000 (HAase [1]; [9]): 6121 units/ml | Final concentration of HAase (units/ml) 500 (HAase [1]; [10]): 511 units/ml | Final concentration of HAase (units/ml) 2000 (HAase [1]; [10]): 1974 units/ml | Final concentration of HAase (units/ml) 6000 (HAase [1]; [10]): 5990 units/ml | interference with the activity of HAase (HAase [1]): not interfere with the activity of HAase | Final concentration of HAase (units/ml) 2000 (HAase [3]; antibiotic 30 mg/ml in physiological saline, HAase added to 2000 units/ml): 2016 units/ml | Final concentration of HAase (units/ml) 150 (HAase [3]; antibiotic 300 mg/ml in physiological saline, HAase added to 150 units/ml): 156 units/ml | Tmax [4, 11]: 15 min | Tmax ([4]; male, ICR, mouse, blood, iv): 5 min | AUC(0-t) ([4]; male, ICR, mouse, blood, iv, ICR male mice, administration by injection via tail vein, single dose 100-200 mg/kg): 450 µg·h/mL | Cmax ([4]; male, ICR, mouse, blood, iv, Cmax, ICR male mice, administration by injection via tail vein, single dose 100-200 mg/kg): 368 µg/mL | Tmax ([4]; male, ICR, mouse, blood, sc): 15 min | AUC(0-t) ([4]; male, ICR, mouse, blood, sc, ICR male mice, conventional subcutaneous administration, single dose 100-200 mg/kg): 442 µg·h/mL | AUC(0-t) ([4]; male, ICR, mouse, blood, sc, ICR male mice, in combination with recombinant human HAase for subcutaneous administration, single dose 100-200 mg/kg): 459 µg·h/mL | Cmax ([4]; male, ICR, mouse, blood, sc, Cmax, ICR male mice, conventional subcutaneous administration, single dose 100-200 mg/kg): 318 µg/mL | Cmax ([4]; male, ICR, mouse, blood, sc, Cmax, ICR male mice, in combination with recombinant human HAase for subcutaneous administration, single dose 100-200 mg/kg): 333 µg/mL

Teicoplanin
Final concentration of HAase (units/ml) 150 (HAase [1]; [12]): 160 units/ml | Final concentration of HAase (units/ml) 500 (HAase [1]; [12]): 488 units/ml | Final concentration of HAase (units/ml) 2000 (HAase [1]; [12]): 1972 units/ml | Final concentration of HAase (units/ml) 6000 (HAase [1]; [12]): 6033 units/ml | Final concentration of HAase (units/ml) 150 (HAase [1]; [13]): 152 units/ml | Final concentration of HAase (units/ml) 500 (HAase [1]; [13]): 498 units/ml | Final concentration of HAase (units/ml) 2000 (HAase [1]; [13]): 1961 units/ml | Final concentration of HAase (units/ml) 6000 (HAase [1]; [13]): 5979 units/ml | interference with the activity of HAase (HAase [1]): does not interfere with the activity of HAase | AUClast [4, 14]: 195 µg·h/mL | Cmax [4, 14]: 148 µg/mL | Tmax [4, 14]: 5 min | AUClast [4, 15]: 201 µg·h/mL | Cmax [4, 15]: 121 µg/mL | Tmax [4, 15]: 15 min | AUClast [4, 11]: 210 µg·h/mL | Cmax [4, 11]: 133 µg/mL | Tmax [4, 11]: 15 min
